Source: ChEMBL document CHEMBL1128172, “Structure-activity relationships of cyclic pentapeptide endothelin A receptor antagonists” (J Med Chem, 1995)

Target: T1, Endothelin-1 receptor (Sus scrofa, UniProt Q29010)
T1 sequence (Q29010 whole entry): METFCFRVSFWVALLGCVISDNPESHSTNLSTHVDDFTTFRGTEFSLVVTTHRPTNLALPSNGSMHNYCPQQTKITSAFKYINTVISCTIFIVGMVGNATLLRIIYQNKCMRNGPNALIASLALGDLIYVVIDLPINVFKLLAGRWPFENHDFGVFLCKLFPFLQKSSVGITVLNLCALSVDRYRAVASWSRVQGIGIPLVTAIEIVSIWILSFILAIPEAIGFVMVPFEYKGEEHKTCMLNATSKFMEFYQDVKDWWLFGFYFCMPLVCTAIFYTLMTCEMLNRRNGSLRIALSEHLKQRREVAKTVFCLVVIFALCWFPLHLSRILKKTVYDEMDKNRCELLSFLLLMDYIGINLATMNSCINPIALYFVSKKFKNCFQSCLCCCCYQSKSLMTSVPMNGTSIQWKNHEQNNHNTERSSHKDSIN
Assay: The compound was tested for binding inhibitory activity against Endothelin A receptor from porcine aortic smooth muscle membranes.

SMILES | IC50 max [nM]
CC(C)C[C@@H]1NC(=O)[C@@H](C(C)C)NC(=O)CN(C)C(=O)[C@@H](CC(=O)O)NC(=O)[C@@H](Cc2c[nH]c3ccccc23)NC1=O (single isomer, unassigned) | 32
CC(C)C[C@@H]1NC(=O)[C@@H](C(C)C)NC(=O)[C@@H]2CSCN2C(=O)[C@@H](CC(=O)O)NC(=O)[C@@H](Cc2c[nH]c3ccccc23)NC1=O (single isomer, unassigned) | 20
CC(C)C[C@@H]1NC(=O)[C@@H](C(C)C)NC(=O)[C@@H]2CCCN2C(=O)[C@@H](CC(=O)O)NC(=O)[C@@H](Cc2cn(C=O)c3ccccc23)NC1=O (single isomer, unassigned) | 18
CC(C)C[C@@H]1NC(=O)[C@@H](C(C)C)NC(=O)[C@@H]2CCCN2C(=O)[C@@H](CC(=O)O)NC(=O)[C@@H](Cc2ccccc2)NC1=O (single isomer, unassigned) | > 100000
CC(C)C[C@H]1NC(=O)[C@H](C(C)C)NC(=O)[C@H]2C[C@@H](O)CN2C(=O)[C@H](CC(=O)O)NC(=O)[C@H](Cc2c[nH]c3ccccc23)NC1=O | 18
CC(C)C[C@@H]1NC(=O)[C@@H](C(C)C)NC(=O)[C@H](C)NC(=O)[C@H](CCC(=O)O)NC(=O)[C@H](Cc2c[nH]c3ccccc23)NC1=O (single isomer, unassigned) | > 100000
CC(C)C[C@H]1C(=O)N[C@H](Cc2c[nH]c3ccccc23)C(=O)N[C@H](CC(=O)O)C(=O)N2CCC[C@H]2C(=O)N[C@H](C(C)C)C(=O)N1C (single isomer, unassigned) | 35
CC[C@H](C)[C@@H]1NC(=O)[C@@H](C(C)C)NC(=O)[C@@H]2CCCN2C(=O)[C@@H](CC(=O)O)NC(=O)[C@@H](Cc2c[nH]c3ccccc23)NC1=O (stereo in doubt) | 230
CC(C)C[C@@H]1NC(=O)[C@@H](C(C)C)NC(=O)[C@H](C)NC(=O)[C@H](CCC(=O)O)NC(=O)[C@@H](Cc2c[nH]c3ccccc23)NC1=O (single isomer, unassigned) | > 100000
CC(C)C[C@@H]1NC(=O)[C@@H](C(C)C)NC(=O)[C@@H]2CCCN2C(=O)[C@@H](CCO)NC(=O)[C@@H](Cc2c[nH]c3ccccc23)NC1=O (single isomer, unassigned) | 1700
CCC[C@@H]1NC(=O)[C@@H](C(C)C)NC(=O)[C@@H]2CCCN2C(=O)[C@@H](CC(=O)O)NC(=O)[C@@H](Cc2c[nH]c3ccccc23)NC1=O (single isomer, unassigned) | 33
CCC[C@H]1NC(=O)[C@@H]2CCCN2C(=O)[C@@H](CC(=O)O)NC(=O)[C@@H](Cc2c[nH]c3ccccc23)NC(=O)[C@H](CC(C)C)NC1=O (single isomer, unassigned) | 47
CC(C)C[C@@H]1NC(=O)[C@@H](C(C)C)NC(=O)[C@@H]2CCCN2C(=O)[C@@H](CC(=O)O)NC(=O)[C@@H](Cc2cn(C(=O)OC(C)(C)C)c3ccccc23)NC1=O (single isomer, unassigned) | 1500
CC(C)C[C@@H]1NC(=O)[C@@H](C(C)(C)C)NC(=O)[C@@H]2CCCN2C(=O)[C@@H](CC(=O)O)NC(=O)[C@@H](Cc2c[nH]c3ccccc23)NC1=O (single isomer, unassigned) | 15
CC(C)C[C@@H]1NC(=O)[C@@H](C(C)C)NC(=O)[C@@H]2CCCN2C(=O)[C@@H](CC(=O)O)NC(=O)[C@@H](Cc2c[nH]cn2)NC1=O (single isomer, unassigned) | > 100000
CC(C)C[C@@H]1NC(=O)[C@@H](C(C)C)NC(=O)CNC(=O)[C@@H](CC(=O)O)NC(=O)[C@@H](Cc2c[nH]c3ccccc23)NC1=O (single isomer, unassigned) | 160
CC(C)C[C@@H]1NC(=O)[C@@H](C(C)C)NC(=O)[C@@H]2CCCN2C(=O)[C@@H](CCC(=O)O)NC(=O)[C@@H](Cc2c[nH]c3ccccc23)NC1=O (single isomer, unassigned) | 410
CC(C)C[C@@H]1NC(=O)[C@@H](C(C)C)NC(=O)[C@H](C)N(C)C(=O)[C@@H](CC(=O)O)NC(=O)[C@@H](Cc2c[nH]c3ccccc23)NC1=O (single isomer, unassigned) | 34
CC(C)C[C@@H]1NC(=O)[C@@H](C2=CCC=CC2)NC(=O)[C@@H]2CCCN2C(=O)[C@@H](CC(=O)O)NC(=O)[C@@H](Cc2c[nH]c3ccccc23)NC1=O (single isomer, unassigned) | 19

Next, values leading:

IC50 max [nM] | SMILES
210 | CC(C)C[C@@H]1NC(=O)[C@@H](C(C)C)NC(=O)[C@H](Cc2ccccc2)NC(=O)[C@@H](CC(=O)O)NC(=O)[C@@H](Cc2c[nH]c3ccccc23)NC1=O (single isomer, unassigned)
240 | CC(C)C[C@@H]1NC(=O)[C@@H](C(C)C)NC(=O)[C@H](CS)NC(=O)[C@@H](CC(=O)O)NC(=O)[C@@H](Cc2c[nH]c3ccccc23)NC1=O (single isomer, unassigned)
140 | CC(C)C[C@@H]1NC(=O)[C@@H](C(C)C)NC(=O)[C@H](CCC(=O)O)NC(=O)[C@@H](CC(=O)O)NC(=O)[C@@H](Cc2c[nH]c3ccccc23)NC1=O (single isomer, unassigned)
> 100000 | CC(C)C[C@@H]1NC(=O)[C@@H](CC(=O)O)NC(=O)[C@H](CO)NC(=O)[C@@H](CC(=O)O)NC(=O)[C@@H](Cc2c[nH]c3ccccc23)NC1=O (single isomer, unassigned)
35000 | CC(C)C[C@@H]1NC(=O)CNC(=O)[C@H](CO)NC(=O)[C@@H](CC(=O)O)NC(=O)[C@@H](Cc2c[nH]c3ccccc23)NC1=O (single isomer, unassigned)
250 | CC(C)C[C@@H]1NC(=O)[C@@H](C(C)C)NC(=O)[C@H](CCCN)NC(=O)[C@@H](CC(=O)O)NC(=O)[C@@H](Cc2c[nH]c3ccccc23)NC1=O (single isomer, unassigned)
190 | CC(C)C[C@@H]1NC(=O)[C@@H](C(C)C)NC(=O)[C@H](CO)NC(=O)[C@@H](CC(=O)O)NC(=O)[C@@H](Cc2c[nH]c3ccccc23)NC1=O (single isomer, unassigned)
2800 | CC(C)[C@H]1NC(=O)[C@H](CC(=O)O)NC(=O)[C@@H](CC(=O)O)NC(=O)[C@@H](Cc2c[nH]c3ccccc23)NC(=O)[C@H](C)NC1=O (single isomer, unassigned)
240 | CC(C)C[C@@H]1NC(=O)[C@@H](C(C)C)NC(=O)[C@H](Cc2cnc[nH]2)NC(=O)[C@@H](CC(=O)O)NC(=O)[C@@H](Cc2c[nH]c3ccccc23)NC1=O (single isomer, unassigned)
270 | CC(C)C[C@@H]1NC(=O)[C@@H](C(C)C)NC(=O)[C@H]([C@@H](C)O)NC(=O)[C@@H](CC(=O)O)NC(=O)[C@@H](Cc2c[nH]c3ccccc23)NC1=O (stereo in doubt)
530 | CC(C)C[C@@H]1NC(=O)[C@@H](C(C)C)NC(=O)[C@H](C(C)C)NC(=O)[C@@H](CC(=O)O)NC(=O)[C@@H](Cc2c[nH]c3ccccc23)NC1=O (single isomer, unassigned)
150 | CC(C)C[C@@H]1NC(=O)[C@@H](C(C)C)NC(=O)[C@H](CCCN=C(N)N)NC(=O)[C@@H](CC(=O)O)NC(=O)[C@@H](Cc2c[nH]c3ccccc23)NC1=O (single isomer, unassigned)
160 | CC(C)C[C@@H]1NC(=O)[C@@H](C(C)C)NC(=O)[C@H](CCC(N)=O)NC(=O)[C@@H](CC(=O)O)NC(=O)[C@@H](Cc2c[nH]c3ccccc23)NC1=O (single isomer, unassigned)
